Legend:
[1] = cited from earlier work
[2] = Comparative and competitive slurry experiments (mixtures of forms, followed by powder X-ray diffraction); assay type: physicochemical
Experimental: Mixtures of Efavirenz form I with form III or form C were prepared according to table II. The suspensions were stirred at 20°C with small PTFE coated cross-shaped magnetic stirrers and samples taken after 1, 2 and 7 days, filtered, dried at ambient temperature under vacuum for 20 minutes and analyzed by powder X-ray diffraction.

[3] = Accelerated stability conditions; assay type: physicochemical
Source text: Thus, in one aspect, the present invention is directed to a polymorphic form C of Efavirenz characterized by an X-ray powder diffraction pattern which comprises characteristic 2θ values at: 7.1, 7.3, 11.0, 13.8, 14.2, 14.6, 19.1, 20.9, 21.2, 24.5 and 24.9 ± 0.2 degrees 2θ.

[4] = Dissolution studies in ethanol-water (volume of ethanol required for dissolution of an aqueous suspension); assay type: physicochemical; settings: suspension in water 20 mL with DSS 0.02 g, 20°C, ethanol added at 0.2 mL/min, 50% reduction in turbidity
Experimental: Dissolution experiments were performed for forms I, III and C of Efavirenz. To an aqueous suspension of each form, ethanol was added and the volume recorded in order for dissolution. Efavirenz is hydrophobic and has a tendency to float in water. To improve the dispersion of efavirenz in water, a surfactant was used, namely, docusate sodium (DSS), the dioctyl ester of sodium sulfosuccinate. DSS is a widely used pharmaceutical excipient and food additive. Efavirenz, polymorphic form and quantity as indicated in the table V, was suspended in water (milliQ, 20 mL) with DSS (docusate sodium, 0.02 g) in a 100 mL vessel. This mixture was placed in an ultrasonic batch for 5 minutes to break up any agglomerates and then the vessel was transferred to an automated (HEL) reaction block equipped with pitched 4-blade turbine PTFE agitators (set to 120 rpm), turbidity probes and syringe pumps. The temperature inside the vessels was controlled by jackets connected to a re-circulating heater-chiller unit. The mixtures were agitated at 20°C and turbidity probes adjusted before addition of ethanol at a continuous rate of 0.2 mL/min via the syringe pumps. The volume of ethanol required for dissolution was taken as that required for a 50% reduction in the turbidity reading. […]

[5] = Dissolution studies in heptane (solubility curve, dissolution point by turbidity); assay type: physicochemical; settings: for Dissolution Temperatures: in heptane, heating ramp 0.2°C/min, 10% reduction in turbidity; for solubility in heptane, compared between forms: temperature range studied 17-82°C
Experimental: To determine the solubility curve of a given polymorphic form, different concentrations in heptane were prepared and charged to a HEL multi-reactor, using 100 mL vessels. These reactors were equipped with 4-blade PTFE turbines, (set to 150 rpm), temperature probes and turbidity probes. Temperature was controlled by applying the same re-circulating heater-chiller unit to all vessel jackets and using individual temperature compensation by external heating plates below each vessel. Heating ramps of 0.2°C/min were applied to each vessel, and the dissolution point determined by a 10% reduction in turbidity. […] Table VI. Results for solubility in heptane

[6] = slurry in ethanol/water, 20°C, samples after 1, 2 and 7 days

conversion of form C into form I ([2]; form C in its pure form, without any contamination with form I)	stability ([3]; 25°C and 60% relative humidity)	stability ([3]; 40°C and 75% relative humidity)	Dissolution Temperatures ([5]; concentration 0,010 g/mL) [°C]	Dissolution Temperatures ([5]; concentration 0,040 g/mL) [°C]	Dissolution Temperatures ([5]; concentration 0,067 g/mL) [°C]	Dissolution Temperatures ([5]; concentration 0,200 g/mL) [°C]	solubility in heptane, compared between forms [5]	Dissolution Temperatures ([5]; concentration 0,180 g/mL) [°C]	Compound	aqueous solubility [1]	content of form C in a mixture of form I and form C [2, 6]	content of form C in a mixture of form I and form C ([2]; slurry in methanol/water, 20°C, samples after 1, 2 and 7 days)	volume of ethanol required to achieve dissolution, compared between forms [4]	content of form I in a mixture of form I and form III [2, 6]
									O=C1Nc2ccc(Cl)cc2[C@@](C#CC2CC2)(C(F)(F)F)O1 [Efavirenz, (4S)-6-chloro-4-(cyclopropylethynyl)-4-(trifluoromethyl)-1,4-dihydro-2H-3,1-benzoxazin-2-one]	extremely poor				
			29	64	74	82	less soluble at high temperature		O=C1Nc2ccc(Cl)cc2[C@@](C#CC2CC2)(C(F)(F)F)O1 [Form I, (4S)-6-chloro-4-(cyclopropylethynyl)-4-(trifluoromethyl)-1,4-dihydro-2H-3,1-benzoxazin-2-one]					decreases with time, and after 7 days the mixture has converted completely to form III
			31	55	62		less soluble at low temperature	75	O=C1Nc2ccc(Cl)cc2[C@@](C#CC2CC2)(C(F)(F)F)O1 [Form III, (4S)-6-chloro-4-(cyclopropylethynyl)-4-(trifluoromethyl)-1,4-dihydro-2H-3,1-benzoxazin-2-one]					

Compound	conversion of form C into form I ([2]; form C in its pure form, without any contamination with form I)	stability ([3]; 25°C and 60% relative humidity)	stability ([3]; 40°C and 75% relative humidity)	Dissolution Temperatures ([5]; concentration 0,010 g/mL) [°C]	Dissolution Temperatures ([5]; concentration 0,040 g/mL) [°C]	Dissolution Temperatures ([5]; concentration 0,067 g/mL) [°C]	Dissolution Temperatures ([5]; concentration 0,200 g/mL) [°C]	solubility in heptane, compared between forms [5]	Dissolution Temperatures ([5]; concentration 0,180 g/mL) [°C]	aqueous solubility [1]	content of form C in a mixture of form I and form C [2, 6]	content of form C in a mixture of form I and form C ([2]; slurry in methanol/water, 20°C, samples after 1, 2 and 7 days)	volume of ethanol required to achieve dissolution, compared between forms [4]	content of form I in a mixture of form I and form III [2, 6]
O=C1Nc2ccc(Cl)cc2[C@@](C#CC2CC2)(C(F)(F)F)O1 [Form C, (4S)-6-chloro-4-(cyclopropylethynyl)-4-(trifluoromethyl)-1,4-dihydro-2H-3,1-benzoxazin-2-one]	not observed	stable during at least three months	stable during at least three months	17	49	56	71	more soluble in heptane than forms I and III			decreases with time, although some still remains in the mixture after 7 days	a similar trend is observed although the transformation is slower	consistently requires less volume of ethanol than forms I and III	

Source: patent publication EP2471783A1, “Novel polymorphic form of efavirenz” (Esteve Química, S.A., priority 2010, dated 2012)
